Reference: patent US20250360142A1, “NOVEL ATP-SENSITIVE POTASSIUM CHANNEL POTENTIATORS, THEIR PREPARATION AND USE” (RHYTHM PHARMACEUTICALS, INC., priority 2022, published 2025)

Columns and labels:
INS-1E cells = assay: Glucose stimulated insulin secretion assay (GSIS) in INS-1E cells; type: cell-based, rat; details: for inhibition at 10 µM / IC50: Rattus norvegicus; for inhibition at 10 µM: INS-1E cells; for % inhibition of Insulin (Average Inhibition (%)) / IC50: INS-1E cell line
Method: (§1) INS-1E, rat pancreatic tumor (insulinoma) cells were used in the GSIS assay. INS-1E cells were thawed and incubated in culture medium (CM) (RPMI 1640+Glucose q.s., HEPES 25 mM, Na-Pyruvat 1 mM, 2-Mercaptoethanol 50 μM, Fetal Calf Serum; heat inactivated (FCS) 10%, Penicillin/Streptomycin 100 U/ml) at 37° C.; 5% CO2 in a humidified atmosphere. 96 welled plates are coated with Matrigel by incubating the plates with 1 ml pre-diluted 1:10 with cold basal medium with 100 μl/well at 37° C. for 1 hour. Matrigel is then removed and replaced with 100 μl CM. Cells are then seeded into the wells as 70 000 cells/well. CM is refreshed with 200 μl fresh CM on the third day. CM is refreshed again with 200 μl fresh CM on the sixth day. GSIS assay is performed on the seventh day and cells in wells are washed with PKrebs®BSA and incubated with 100 μL/well for 2 h. Secretion plates are placed in an incubator at 37° C., 5% C02 and saturated humidity for 60 min. Meanwhile, lysis solution is prepared by adding 1 tablet of protease inhibitor/10 mL TETG solution and kept at 4° C. until the end of the experiment. The other incubation buffers are prepared without adding pharmacological compounds, aliquoted and then placed in a water bath at 37° C. The samples are prepared including negative (βKrebs®B0=0 mM Glucose) and positive controls (PKrebs®B20=20 mM Glucose) and each compound to be tested is diluted in DMSO as having a series of final concentration including 10.00, 4.00, 1.60, 0.64, 0.26, 0.10, 0.04, 0.02 μM.
(§2) After 2 hours of starvation, glucose stimulation and treatments are initiated. KRB Buffer from cells is removed by pipetting. The solutions are homogenized and the cells are treated with 90 µL/well. 10 μl from 10-fold compound dilution is added to the assay plate (final 100 μl/well) according to the following layout for each compound to be tested.
(§3) Incubation time is 40 minutes. Plates are placed in an incubator at 37° C., 5% CO2 and saturated humidity. After incubation, 80 μL of supernatants are collected without disrupting the cell layer and stored at 4° C. or on ice until centrifugation. Remaining medium are removed from each well and 100 μL/well of cold lysis solution is added and incubated for minimum 2 minutes at room temperature. Cell lysis is observed under microscope and waited for maximum for 5 more minutes until the lysis is complete. Cell lysates are collected and all samples including supernatants are centrifuged at 700×g, 5 min at 4° C. 30 μL of each samples are transferred into aliquots for ELISA. ELISA is performed with HTRF Assay Kit comprising an insulin high range kit supplied by Cisbio/Perkin Elmer. 5 μl of each Insulin standard and 5 μl of either supernatant or lysate are transferred on HTRF plate. 40 μl/well of Anti-insulin—XL665 and 20 μl/well of Anti-insulin—EU are added to each well and the plate is read on HTRF compatible reader (fluorescence 620 nm & 665 nm).

EndoC-βH1 Cell Line = assay: GSIS assay in EndoC-βH1 cell line; type: cell-based
Method: as §1, §2, §3
GSIS experiments were also performed in other cell lines, e.g., EndoC-βH1, a canonical cell line for screening new therapeutic compounds.

Compound | inhibition at 10 µM (INS-1E cells) [%] | IC50 (EndoC-βH1 Cell Line) [nM] | also measured
O=S1(=O)N=C(NC2CCOC2)Nc2cc(Cl)c(F)cc21 (centres unmarked) [Compound 73] | ≥ 50 | – | –
CC12CC(NC3=NS(=O)(=O)c4cc(F)c(Cl)cc4N3)(C1)C2 [Compound 18, 6-chloro-7-fluoro-3-((3-methylbicyclo[1.1.1]pentan-1-yl)amino)-4H-benzo[e][1,2,4]thiadiazine 1,1-dioxide] | – | – | % inhibition of Insulin (Average Inhibition (%)) (INS-1E cells): C (C is equal to 10-25% inhibition)
O=S1(=O)N=C(NC23CC(C2)C3)Nc2ccc(Cl)cc21 [Compound 62] | 25 to 50 | – | –
O=S1(=O)N=C(NC23CC(C2)C3)Nc2ccc(F)cc21 [Compound 1, 3-(bicyclo[1.1.1]pentan-1-ylamino)-7-fluoro-4H-benzo[e][1,2,4] thiadiazine 1,1-dioxide] | ≥ 50 | < 500 | IC50 (INS-1E cells): 500 to 1000 nM
CC1(NC2=NS(=O)(=O)c3cc(F)ccc3N2)CCC1 [Compound 2, 7-fluoro-3-((1-methylcyclobutyl)amino)-4H-benzo[e][1,2,4]thiadiazine 1,1-dioxide] | – | < 500 | –
O=S1(=O)N=C(NC2CC23CC3)Nc2cc(Cl)c(F)cc21 (single isomer, unassigned) [Compound 29, (S*)-6-chloro-7-fluoro-3-(spiro[2.2]pentan-1-ylamino)-4H-benzo[e][1,2,4]-thiadiazine 1,1-dioxide] | – | ≥ 2000 | –
O=S1(=O)N=C(NC2CC23CC3)Nc2cc(Cl)c(F)cc21 (single isomer, unassigned) [Compound 30, (R*)-6-chloro-7-fluoro-3-(spiro[2.2]pentan-1-ylamino)-4H-benzo[e][1,2,4]-thiadiazine 1,1-dioxide] | – | < 500 | –
O=S1(=O)N=C(NC2CC23CC3)Nc2ccc(F)cc21 (centres unmarked) [Compound 8, 7-fluoro-(spiro[2.2]pentan-1-ylamino)-4H-benzo[e][1,2,4]thiadiazine 1,1-dioxide] | – | 1000 to 2000 | –
O=S1(=O)N=C(NC2CC23CCC3)Nc2ccc(F)cc21 (centres unmarked) [Compound 11, 7-fluoro-3(spiro[2.3]hexan-1-ylamino)-4H-benzo[e][1,2,4]thiadiazine 1,1-dioxide] | – | – | % inhibition of Insulin (Average Inhibition (%)) (INS-1E cells): B (B is equal to 25-50% inhibition); IC50 (INS-1E cells): 500 to 1000 nM
CC1(NC2=NS(=O)(=O)c3cc(F)c(Cl)cc3N2)CC1 [Compound 58] | ≥ 50 | – | –
O=S1(=O)N=C(NC2CC23CC3)Nc2cc(Cl)c(F)cc21 (centres unmarked) [Compound 28, 6-chloro-7-fluoro-3-(spiro[2.2]pentan-1-ylamino)-4H-benzo[e][1,2,4]thiadiazine 1,1-dioxide] | – | < 500 | –
COCC1(NC2=NS(=O)(=O)c3cc(F)ccc3N2)CCC1 [Compound 65] | 25 to 50 | – | –
CC(C)C1(NC2=NS(=O)(=O)c3cc(F)ccc3N2)CC1 [Compound 63] | ≥ 50 | – | –
CC1(NC2=NS(=O)(=O)c3cc(Cl)ccc3N2)CC1 [Compound 51] | 10 to 25 | – | –
O=S1(=O)N=C(NC(CF)CF)Nc2ccc(F)cc21 [Compound 43] | 10 to 25 | – | –
O=S1(=O)N=C(NC23CCC(C2)C3)Nc2ccc(F)cc21 [Compound 4, 3-(bicyclo[2.1.1]hexan-1-ylamino)-7-fluoro-4H-benzo[e][1,2,4]thiadiazine 1,1-dioxide] | – | 500 to 1000 | –
CCC1(NC2=NS(=O)(=O)c3cc(F)ccc3N2)CC1 [Compound 12, 3-((1-ethylcyclopropyl)amino)-7-fluoro-4H-benzo[e][1,2,4]thiadiazine 1,1-dioxide] | – | – | % inhibition of Insulin (Average Inhibition (%)) (INS-1E cells): C (C is equal to 10-25% inhibition)
CC1(C)CC1NC1=NS(=O)(=O)c2cc(F)c(Cl)cc2N1 (centres unmarked) [Compound 20, 6-chloro-3-((2,2-dimethylcyclopropyl)amino)-7-fluoro-4H-benzo[e][1,2,4] thiadiazine 1,1-dioxide] | – | < 500 | –
O=S1(=O)N=C(NC2CC23CCC3)Nc2cc(Cl)c(F)cc21 (single isomer, unassigned) [Compound 17, (R*)-6-chloro-7-fluoro-3-(spiro[2.3]hexan-1-ylamino)-4H-benzo[e][1,2,4]-thiadiazine 1,1-dioxide] | – | < 500 | –

Compound | inhibition at 10 µM (INS-1E cells) [%] | IC50 (EndoC-βH1 Cell Line) [nM] | also measured
C[C@H]1C[C@@H]1NC1=NS(=O)(=O)c2cc(F)c(Cl)cc2N1 (stereo in doubt) [Compound 26, 6-chloro-7-fluoro-3-(((1S*, 2S*)-2-methylcyclopropyl)amino)-4H-benzo[e][1,2,4]-thiadiazine 1,1-dioxide] | – | 1000 to 2000 | –
O=S1(=O)N=C(NC2(CF)CC2)Nc2cc(Cl)c(F)cc21 [Compound 60] | ≥ 50 | – | –
CC1(NC2=NS(=O)(=O)c3cc(F)ccc3N2)CC1 [Compound 46] | ≥ 50 | – | –
O=S1(=O)N=C(NC2CCOC2)Nc2ccc(F)cc21 (centres unmarked) [Compound 71] | 10 to 25 | – | –
CC1(C)CC1NC1=NS(=O)(=O)c2cc(F)ccc2N1 (single isomer, unassigned) [Compound 7, (R*)-3-((2,2-dimethylcyclopropyl)amino)-7-fluoro-4H-benzo[e][1,2,4]thiadiazine 1,1-dioxide] | – | – | % inhibition of Insulin (Average Inhibition (%)) (INS-1E cells): B (B is equal to 25-50% inhibition)
CC1(NC2=NS(=O)(=O)c3cc(F)c(Cl)cc3N2)CCC1 [Compound 24, 6-chloro-7-fluoro-3-((1-methylcyclobutyl)amino)-4H-benzo[e][1,2,4]thiadiazine 1,1-dioxide] | – | < 500 | –
CC1(C)CC1NC1=NS(=O)(=O)c2cc(F)ccc2N1 (centres unmarked) [Compound 5, 3-((2,2-dimethylcyclopropyl)amino)-7-fluoro-4H-benzo[e][1,2,4]thiadiazine 1,1-dioxide] | – | 1000 to 2000 | –
CC(C)C1(NC2=NS(=O)(=O)c3cc(F)c(Cl)cc3N2)CC1 [Compound 64] | 25 to 50 | – | –
O=S1(=O)N=C(NC2(CF)CC2)Nc2ccc(F)cc21 [Compound 47] | 10 to 25 | – | –
O=S1(=O)N=C(NC2CCOC2)Nc2ccc(Cl)cc21 (centres unmarked) [Compound 72] | 25 to 50 | – | –
COCC1(NC2=NS(=O)(=O)c3cc(F)c(Cl)cc3N2)CCC1 [Compound 69] | ≥ 50 | – | –
O=S1(=O)N=C(NC2CC23CCC3)Nc2cc(Cl)c(F)cc21 (single isomer, unassigned) [Compound 16, (S*)-6-chloro-7-fluoro-3-(spiro[2.3]hexan-1-ylamino)-4H-benzo[e][1,2,4]-thiadiazine 1,1-dioxide] | – | 500 to 1000 | –
CC1(C)CC1NC1=NS(=O)(=O)c2cc(F)c(Cl)cc2N1 (single isomer, unassigned) [Compound 22, (R*)-6-chloro-3-((2,2-dimethylcyclopropyl)amino)-7-fluoro-4H-benzo[e][1,2,4] thiadiazine 1,1-dioxide] | – | 1000 to 2000 | –
CC1(C)CC1NC1=NS(=O)(=O)c2cc(F)c(Cl)cc2N1 (single isomer, unassigned) [Compound 21, (S*)-6-chloro-3-((2,2-dimethylcyclopropyl)amino)-7-fluoro-4H benzo[e][1,2,4] thiadiazine 1,1-dioxide] | – | 500 to 1000 | –
C[C@@H]1C[C@H]1NC1=NS(=O)(=O)c2cc(F)c(Cl)cc2N1 (stereo in doubt) [Compound 27, 6-chloro-7-fluoro-3-(((1R*, 2R*)-2 methylcyclopropyl)amino)-4H-benzo[e][1,2,4]-thiadiazine 1,1-dioxide] | – | ≥ 2000 | –
O=S1(=O)N=C(NC23CC(F)(C2)C3)Nc2ccc(F)cc21 [Compound 3, 7-fluoro-3-((3-fluorobicyclo[1.1.1]pentan-1-yl)amino)-4H-benzo[e][1,2,4]thiadiazine 1,1-dioxide] | – | ≥ 2000 | –
O=S1(=O)N=C(NC2CC23CC3)Nc2ccc(F)cc21 (single isomer, unassigned) [Compound 9, (S*)-7-fluoro-3-(spiro[2.2]pentan-1-ylamino)-4H-benzo[e][1,2,4]thiadiazine 1,1-dioxide] | – | – | % inhibition of Insulin (Average Inhibition (%)) (INS-1E cells): B (B is equal to 25-50% inhibition)
O=S1(=O)N=C(NC2(CF)CC2)Nc2ccc(Cl)cc21 [Compound 52] | 10 to 25 | – | –
O=S1(=O)N=C(NC(CF)CF)Nc2ccc(Cl)cc21 [Compound 49] | ≥ 50 | – | –
